Measured values as given in US8957098B2 (ALGIAX Pharmaceuticals GmbH, priority 2010, dated 2015).

How the values were obtained:
[1] = test system: severe spinal cord contusion injury in the rat; experiment: BBB open field locomotor rating scale after severe spinal cord contusion injury; type: in vivo; conditions: Example 2; 20 mg/kg/day by gavage for 7 days; effect distinct from DPO 7 to DPO 63 (ANOVA-RM p=0.002); vehicle 8.3
Procedure: The BBB score is scaled from 0 to 21 points, a BBB score of 0 represents a complete paralysis of the hind limbs and a BBB score of 21 represents normal locomotion. […]
The BBB locomotor rating scale was used according to the present disclosure to assess general locomotor performance. The score was assessed before injury and at 1, 3, 5, 7, 14, 21, 35, 42, 49, 56 and 63 days post operation (dpo) by 2 blinded observers.

[2] = test system: severe spinal cord contusion injury in the rat; experiment: Explorative rearing test after severe spinal cord contusion injury; type: in vivo; conditions: Example 1; 20 mg/kg/day by gavage for 7 days
Procedure: Thirteen week-old female Lewis rats (Charles River, Sulzfeld Germany) were housed under a 12:12 h dark/light regime and allowed free access to water and food. After one week of habituation the animals underwent general anesthesia with a mixture of isoflurane and air (induction: 5% isoflurane, maintenance: 2.2% isofluorane). A Th10 laminectomy was performed without rupturing the dura and a severe contusive SCI (25 gem NYU/MASCIS II impactor) {Gruner, 1992 #3} was induced. After suturing muscle and skin, a subcutaneous (s.c.) injection of 5 ml of Ringers Lactate was given. Bladders were emptied manually 2 times a day until spontaneous voiding returned (usually within 1 week). The lesion severity was verified by the impact velocity and contusion depth of the impactor rod. Animals with an impact velocity error >5% were excluded from further analysis. After injury, individual rats were randomly assigned into a treatment group. The following groups were used:
When placed in a Plexiglas cylinder (18 cm diameter×35.0 cm height), animals spontaneously rear and contact the walls with their forepaws. Numbers, duration and types of rears were analyzed during the 3-min recorded observation period in the cylinder (Himes et al., 2006; Shumsky et al., 2003). A mirror was placed at an angle behind the cylinder so that the forelimbs could be viewed at all times. The testing session was videotaped, and rearing behaviour was scored blindly at a later date.
Different types of rears of increasing heights were observed: • LEVEL 1: Crouch—Animals lifted both forepaws off the ground up to 10 cm; • LEVEL 2: Rear—Animals reared and extended the trunk with the hindlimbs flexed reaching a height between 10 and 15 cm; • LEVEL 3: Stand—Animals reared and extended the trunk with the hindlimbs extended reaching a height over 15 cm.
Occasionally an animal progressed through several types of rears before touching down, in which case the time the animal spend in each rearing height was measured by counting the single video frames. […]

Cc1cc(NC(=O)/C(C#N)=C(\O)C2CC2)ccc1C(F)(F)F [HR325, 1(3-methyl-4-trifluoromethylphenyl-carbamoyl)-2-cyclopropyl-2oxo-propionitrile]
BBB score at steady state [1]: around 10

Cc1oncc1C(=O)Nc1ccc(C(F)(F)F)cc1 [Leflunomide, N-(4-trifluoromethylphenyl)-5-methylisoxazol-4-carboxamide]
exploring time of healthy control animals at LEVEL 3 (>15 cm) compared with treated animals [2]: significantly longer | rearing attempts (time and height reached by forepaws) vs vehicle control animals [2]: longer in time and that the forepaws reached higher levels | significantly less time in LEVEL 2 (10-15 cm) when compared to healthy control animals [2]: this is not the case
